Inconclusive results and toxic doses are left out. Rule as the data show it: active = T/C of 150% or more; inactive = T/C below 125%.
System: L1210 leukemia ip in BDF1 mice, survival T/C
Assay: NCI In Vivo Anticancer Drug Screen. Data for tumor model L1210 Leukemia (intraperitoneal) in B6D2F1 (BDF1) mice
Conditions: endpoint: mean survival time, higher = longer survival
How it was run: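 Value reflects the ratio of survival in compound-treated mice to survival in vehicle-treated controls, with both groups carrying the same transplanted tumor.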

[1] = dose: 100.0 mg/kg/injection, schedule: Q01DX009 (ip), vehicle: saline
[2] = dose: 100.0 mg/kg/injection, schedule: Q04DX003 (ip), vehicle: saline
[3] = dose: 200.0 mg/kg/injection, schedule: Q04DX003 (ip), vehicle: saline
[4] = dose: 75.0 mg/kg/injection, schedule: Q01DX001 (ip), vehicle: other
[5] = dose: 150.0 mg/kg/injection, schedule: Q01DX001 (ip), vehicle: other
[6] = dose: 100.0 mg/kg/injection, schedule: Q04DX003 (ip), vehicle: saline with Tween-80
[7] = dose: 200.0 mg/kg/injection, schedule: Q04DX003 (ip), vehicle: saline with Tween-80
[8] = dose: 100.0 mg/kg/injection, schedule: Q01DX001 (ip), vehicle: saline
[9] = dose: 400.0 mg/kg/injection, schedule: Q04DX003 (ip), vehicle: saline
[10] = dose: 100.0 mg/kg/injection, schedule: Q01DX009 (ip), vehicle: saline with Tween-80
[11] = dose: 200.0 mg/kg/injection, schedule: Q01DX009 (ip), vehicle: saline with Tween-80
[12] = dose: 400.0 mg/kg/injection, schedule: Q01DX009 (ip), vehicle: saline with Tween-80

Measured: T/C

O=C1C2C(C(=O)N1c1ccc([N+](=O)[O-])cc1)C1c3ccccc3C2C2CCCCN21 (centres undefined)
inactive: dose: 50.0 mg/kg/injection, schedule: Q01DX009 (ip), vehicle: saline 95 % of control | dose: 50.0 mg/kg/injection, schedule: Q04DX003 (ip), vehicle: saline 104 % of control | [1] 92 % of control | [2] 97 % of control | [3] 88 % of control

O=S(=O)(Nc1ccccc1Cl)c1ccccc1
inactive: dose: 100.0 mg/kg/injection, schedule: Q01DX009 (ip), vehicle: gum acacia 100 % of control | dose: 100.0 mg/kg/injection, schedule: Q04DX003 (ip), vehicle: gum acacia 93 % of control | dose: 200.0 mg/kg/injection, schedule: Q01DX009 (ip), vehicle: gum acacia 98 % of control | dose: 200.0 mg/kg/injection, schedule: Q04DX003 (ip), vehicle: gum acacia 95 % of control | dose: 400.0 mg/kg/injection, schedule: Q01DX009 (ip), vehicle: gum acacia 94 % of control | dose: 400.0 mg/kg/injection, schedule: Q04DX003 (ip), vehicle: gum acacia 95 % of control

O=S(=O)(O)C1(C(Cl)Cl)CCCCC1 (tested in a mixture with another compound)
inactive: dose: 9.0 mg/kg/injection, schedule: Q01DX001 (ip), vehicle: other 100 % of control | dose: 18.0 mg/kg/injection, schedule: Q01DX001 (ip), vehicle: other 105 % of control | dose: 37.0 mg/kg/injection, schedule: Q01DX001 (ip), vehicle: other 105 % of control | [4] 104 % of control | [5] 111 % of control | dose: 300.0 mg/kg/injection, schedule: Q01DX001 (ip), vehicle: other 115 % of control

COc1ccc(/C=C2/c3c(c(-c4ccccc4)c4ccccc4c3-c3ccccc3)S2(=O)=O)cc1
inactive: dose: 50.0 mg/kg/injection, schedule: Q01DX001 (ip), vehicle: carboxymethylcellulose (CMC) 97 % of control | dose: 100.0 mg/kg/injection, schedule: Q01DX001 (ip), vehicle: carboxymethylcellulose (CMC) 95 % of control | dose: 200.0 mg/kg/injection, schedule: Q01DX001 (ip), vehicle: carboxymethylcellulose (CMC) 95 % of control | dose: 400.0 mg/kg/injection, schedule: Q01DX001 (ip), vehicle: carboxymethylcellulose (CMC) 86 % of control

O=C(O)C1CC(c2ccccc2)C(=O)O1 (centres undefined)
inactive: dose: 100.0 mg/kg/injection, schedule: Q04DX002 (ip), vehicle: Klucel (hydroxypropylcellulose) (HPC) 100 % of control | dose: 200.0 mg/kg/injection, schedule: Q04DX002 (ip), vehicle: Klucel (hydroxypropylcellulose) (HPC) 100 % of control | dose: 400.0 mg/kg/injection, schedule: Q04DX002 (ip), vehicle: Klucel (hydroxypropylcellulose) (HPC) 96 % of control

C[n+]1c(-c2ccc(Cl)cc2Cl)c2cc([N+](=O)[O-])ccc2c2ccccc21
inactive: dose: 12.5 mg/kg/injection, schedule: Q01DX009 (ip), vehicle: water 113 % of control | dose: 25.0 mg/kg/injection, schedule: Q01DX009 (ip), vehicle: water 113 % of control | dose: 25.0 mg/kg/injection, schedule: Q04DX003 (ip), vehicle: water 108 % of control | dose: 50.0 mg/kg/injection, schedule: Q01DX009 (ip), vehicle: water 101 % of control | dose: 100.0 mg/kg/injection, schedule: Q04DX003 (ip), vehicle: water 95 % of control

NCCN1Cc2ccccc2CCc2ccccc2C1
inactive: dose: 25.0 mg/kg/injection, schedule: Q01DX009 (ip), vehicle: Klucel (hydroxypropylcellulose) (HPC) 111 % of control | dose: 50.0 mg/kg/injection, schedule: Q01DX009 (ip), vehicle: Klucel (hydroxypropylcellulose) (HPC) 105 % of control | dose: 100.0 mg/kg/injection, schedule: Q01DX009 (ip), vehicle: Klucel (hydroxypropylcellulose) (HPC) 93 % of control

Cc1ccc(SNc2ccccc2)cc1
inactive: [6] 92 % of control | [7] 100 % of control

CCN=C(N)N=C(N)N
inactive: dose: 25.0 mg/kg/injection, schedule: Q01DX001 (ip), vehicle: saline 96 % of control | dose: 50.0 mg/kg/injection, schedule: Q01DX001 (ip), vehicle: saline 106 % of control | [8] 102 % of control

O=c1[nH]c2ccccc2n1C1=CCN(Cc2ccccc2)CC1
inactive: dose: 100.0 mg/kg/injection, schedule: Q04DX003 (ip), vehicle: Klucel (hydroxypropylcellulose) (HPC) 95 % of control | dose: 200.0 mg/kg/injection, schedule: Q04DX003 (ip), vehicle: Klucel (hydroxypropylcellulose) (HPC) 109 % of control | dose: 400.0 mg/kg/injection, schedule: Q04DX003 (ip), vehicle: Klucel (hydroxypropylcellulose) (HPC) 112 % of control

CC(=O)C1OC1(C)C (centres undefined)
inactive: [8] 108 % of control | [1] 105 % of control | [2] 108 % of control | dose: 200.0 mg/kg/injection, schedule: Q01DX001 (ip), vehicle: saline 103 % of control | dose: 200.0 mg/kg/injection, schedule: Q01DX009 (ip), vehicle: saline 104 % of control | [3] 102 % of control | dose: 400.0 mg/kg/injection, schedule: Q01DX001 (ip), vehicle: saline 104 % of control | dose: 400.0 mg/kg/injection, schedule: Q01DX009 (ip), vehicle: saline 104 % of control | [9] 102 % of control

CC(=O)Nc1ccc(C(C)(C)C)cc1
inactive: dose: 100.0 mg/kg/injection, schedule: Q01DX001 (ip), vehicle: saline with Tween-80 95 % of control | dose: 200.0 mg/kg/injection, schedule: Q01DX001 (ip), vehicle: saline with Tween-80 95 % of control | dose: 400.0 mg/kg/injection, schedule: Q01DX001 (ip), vehicle: saline with Tween-80 95 % of control

CCOC(=O)C(Cc1c[nH]c2ccccc12)NC(=O)/C=C/N(CCCl)CCCl (centres undefined)
inactive: dose: 10.0 mg/kg/injection, schedule: Q01DX Z (ip), vehicle: other 91 % of control | dose: 20.0 mg/kg/injection, schedule: Q01DX Z (ip), vehicle: other 92 % of control | dose: 40.0 mg/kg/injection, schedule: Q01DX Z (ip), vehicle: other 94 % of control | dose: 80.0 mg/kg/injection, schedule: Q01DX Z (ip), vehicle: other 89 % of control

CC(Cl)(Cl)CC(O)(C(F)(F)F)C(F)(F)F
inactive: dose: 50.0 mg/kg/injection, schedule: Q04DX003 (ip), vehicle: saline with Tween-80 95 % of control | [6] 105 % of control | [7] 91 % of control

Cc1ccc(C(O)(c2ccc(C)cc2)C2C(c3ccccc3)N2C)cc1 (centres undefined)
inactive: dose: 100.0 mg/kg/injection, schedule: Q01DX001 (ip), vehicle: Klucel (hydroxypropylcellulose) (HPC) 98 % of control | dose: 200.0 mg/kg/injection, schedule: Q01DX001 (ip), vehicle: Klucel (hydroxypropylcellulose) (HPC) 96 % of control | dose: 400.0 mg/kg/injection, schedule: Q01DX001 (ip), vehicle: Klucel (hydroxypropylcellulose) (HPC) 102 % of control

CCCC(C)CCCNCCOC(=O)c1cccc(N)c1 (centres undefined)
inactive: [4] 97 % of control | [5] 94 % of control

O=[N+]([O-])CC(O)C(O)C(O)C(O)CO (centres undefined)
inactive: [2] 102 % of control | [3] 102 % of control | [9] 102 % of control

CCn1c(COc2cc(C)cc(C)c2)c(COC(=O)c2cccc(Cl)c2)c2ccccc21
inactive: dose: 50.0 mg/kg/injection, schedule: Q01DX009 (ip), vehicle: saline with Tween-80 96 % of control | [10] 86 % of control | [11] 91 % of control

c1csc(-c2nc3ccccc3s2)c1
inactive: [10] 98 % of control | [6] 101 % of control | [11] 100 % of control | [7] 98 % of control | [12] 94 % of control | dose: 400.0 mg/kg/injection, schedule: Q04DX003 (ip), vehicle: saline with Tween-80 93 % of control

O=[N+]([O-])c1ccc(N=C/C=C/c2ccccc2)cc1
inactive: [10] 88 % of control | [11] 94 % of control | [12] 104 % of control

— PubChem BioAssay AID248 (DTP/NCI, 2004)
